The values that follow are results of earlier work, collected in US20150141404A1, “NON-IONIC VESICLE FORMULATIONS OF CALCIUM CHANNEL BLOCKERS” (CONTRACT PHARMACEUTICALS LIMITED, priority 2012, published 2015).

This data set has as its system anal fissure. As to conditions: topical.

Take `COc1ccc([C@@H]2Sc3ccccc3N(CCN(C)C)C(=O)[C@@H]2OC(C)=O)cc1` [diltiazem, Diltiazem]: the healing rates entry was “improved” and the “maximum resting pressure (MRP)” value is reported as “reduces”.
